Assay results reported in patent US10934296B2, “4-imidazopyridazin-1-yl-benzamides as Btk inhibitors” (Merck Sharp & Dohme B.V., priority 2011, dated 2021).

How the values were obtained:
Btk enzyme (His-Btk) = Btk enzyme (His-Btk) (Homo sapiens (Human), UniProt Q06187); experiment: Btk enzyme activity, IMAP fluorescence polarization assay; details: 60 min pre-incubation, 5 μM ATP
Lck enzyme = Lck enzyme (Homo sapiens (Human), UniProt P06239); experiment: Lck enzyme activity, IMAP fluorescence polarization assay; details: 60 min pre-incubation, 6 μM ATP, bin bounds in μM
Chain of Lck enzyme (P06239 whole entry): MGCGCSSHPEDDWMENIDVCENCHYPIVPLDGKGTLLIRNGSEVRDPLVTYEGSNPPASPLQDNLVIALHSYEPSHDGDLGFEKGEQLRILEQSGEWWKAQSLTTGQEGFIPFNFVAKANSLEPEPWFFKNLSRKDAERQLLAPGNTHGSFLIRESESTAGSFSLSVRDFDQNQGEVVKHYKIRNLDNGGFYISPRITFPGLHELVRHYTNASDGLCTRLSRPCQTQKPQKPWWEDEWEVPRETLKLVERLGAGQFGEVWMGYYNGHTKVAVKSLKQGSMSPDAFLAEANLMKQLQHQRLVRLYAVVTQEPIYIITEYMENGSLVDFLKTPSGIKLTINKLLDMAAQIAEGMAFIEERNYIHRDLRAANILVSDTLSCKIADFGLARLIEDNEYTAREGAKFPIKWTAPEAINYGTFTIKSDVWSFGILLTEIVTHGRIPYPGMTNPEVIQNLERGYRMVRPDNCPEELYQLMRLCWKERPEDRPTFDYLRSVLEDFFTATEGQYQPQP

Lyn enzyme = Lyn enzyme (Homo sapiens (Human), UniProt P07948); experiment: Lyn enzyme activity, IMAP fluorescence polarization assay; details: 60 min pre-incubation, 2 μM ATP, bin bounds in μM
Chain of Lyn enzyme (P07948 whole entry): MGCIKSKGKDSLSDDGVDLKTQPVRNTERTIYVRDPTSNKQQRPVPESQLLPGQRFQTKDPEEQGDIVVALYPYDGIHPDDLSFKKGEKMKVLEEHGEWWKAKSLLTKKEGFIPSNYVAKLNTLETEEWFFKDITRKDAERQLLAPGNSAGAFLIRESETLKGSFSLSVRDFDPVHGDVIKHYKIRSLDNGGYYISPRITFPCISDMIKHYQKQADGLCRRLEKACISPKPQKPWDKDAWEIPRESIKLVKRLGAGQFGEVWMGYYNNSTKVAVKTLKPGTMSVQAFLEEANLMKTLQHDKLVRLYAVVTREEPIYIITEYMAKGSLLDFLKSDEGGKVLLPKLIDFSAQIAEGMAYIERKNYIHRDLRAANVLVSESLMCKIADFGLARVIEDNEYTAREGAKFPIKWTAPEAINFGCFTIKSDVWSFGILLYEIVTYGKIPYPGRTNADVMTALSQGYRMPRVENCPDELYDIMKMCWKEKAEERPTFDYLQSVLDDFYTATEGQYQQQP

Chain of Btk enzyme (His-Btk) (Q06187 whole entry): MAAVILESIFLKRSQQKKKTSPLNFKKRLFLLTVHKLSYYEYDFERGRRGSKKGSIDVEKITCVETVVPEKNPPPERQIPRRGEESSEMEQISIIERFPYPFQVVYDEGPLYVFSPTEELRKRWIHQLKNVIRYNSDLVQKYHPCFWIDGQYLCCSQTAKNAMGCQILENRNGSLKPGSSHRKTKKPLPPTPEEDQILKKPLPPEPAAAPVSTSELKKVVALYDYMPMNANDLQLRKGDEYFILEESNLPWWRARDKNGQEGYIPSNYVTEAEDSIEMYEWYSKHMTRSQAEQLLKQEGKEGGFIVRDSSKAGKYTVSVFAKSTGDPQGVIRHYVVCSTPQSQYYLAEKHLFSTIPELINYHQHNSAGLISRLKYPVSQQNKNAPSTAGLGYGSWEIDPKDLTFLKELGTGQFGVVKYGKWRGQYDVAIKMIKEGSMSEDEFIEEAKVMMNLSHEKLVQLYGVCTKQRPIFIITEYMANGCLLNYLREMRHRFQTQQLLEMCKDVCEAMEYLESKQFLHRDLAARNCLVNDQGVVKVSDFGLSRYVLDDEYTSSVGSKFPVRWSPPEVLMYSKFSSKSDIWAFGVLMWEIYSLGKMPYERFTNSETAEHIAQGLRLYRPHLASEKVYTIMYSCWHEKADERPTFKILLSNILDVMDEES

Structure (SMILES)	EC50 Btk activity values (Btk enzyme (His-Btk); bin bounds in nM)	EC50 Lck activity values (Lck enzyme)	also measured
CC#CC(=O)N1CCC[C@H]1c1nc(-c2ccc(C(=O)Nc3nccs3)cc2)c2c(N)nccn12 [Example 60, (S)-4-(8-amino-3-(1-but-2-ynoylpyrrolidin-2-yl)imidazo[1,5-a]pyrazin-1-yl)-N-(thiazol-2-yl)benzamide]	<100 nM	<1 µM	EC50 Lyn activity values (Lyn enzyme): <1 µM
CC#CC(=O)N1CCC[C@H]1c1nc(-c2ccc(C(=O)Nc3ccccn3)c(OC)c2)c2c(N)nccn12 [Example 99, (S)-4-(8-amino-3-(1-but-2-ynoylpyrrolidin-2-yl)imidazo[1,5-a]pyrazin-1-yl)-2-methoxy-N-(pyridin-2-yl)benzamide]	<100 nM		
C[C@H](NC(=O)c1ccnc(Cl)n1)c1nc(-c2ccc(C(=O)Nc3ccccn3)cc2)c2c(N)nccn12 [Example 105, (S)-N-(1-(8-amino-1-(4-(pyridin-2-ylcarbamoyl)phenyl)imidazo[1,5-a]pyrazin-3-yl)ethyl)-2-chloropyrimidine-4-carboxamide]	<100 nM		
CC#CC(=O)NCc1nc(-c2ccc(C(=O)Nc3ccccn3)cc2)c2c(N)nccn12 [Example 112, 4-(8-amino-3-(but-2-ynamidomethyl)imidazo[1,5-a]pyrazin-1-yl)-N-(pyridin-2-yl)benzamide]	<100 nM		
CC#CC(=O)N(C)[C@@H](C)c1nc(-c2ccc(C(=O)Nc3cc(CCC)ccn3)cc2)c2c(N)nccn12 [Example 113, (S)-4-(8-amino-3-(1-(N-methylbut-2-ynamido)ethyl)imidazo[1,5-a]pyrazin-1-yl)-N-(4-propylpyridin-2-yl)benzamide]	<100 nM		
C=CC(=O)N1CCC[C@H]1c1nc(-c2ccc(C(=O)Nc3cc(C#N)ccn3)cc2)c2c(N)nccn12 [Example 122, (S)-4-(3-(1-acryloylpyrrolidin-2-yl)-8-aminoimidazo[1,5-a]pyrazin-1-yl)-N-(4-cyanopyridin-2-yl)benzamide]		<1 µM	
CC#CC(=O)N1CCC[C@H]1c1nc(-c2ccc(C(=O)Nc3cc(-c4ccccc4)ccn3)cc2)c2c(N)nccn12 [Example 132, (S)-4-(8-amino-3-(1-but-2-ynoylpyrrolidin-2-yl)imidazo[1,5-a]pyrazin-1-yl)-N-(4-phenylpyridin-2-yl)benzamide]		<1 µM	
C=CC(=O)N1CCC[C@H]1c1nc(-c2ccc(C(=O)Nc3cc(-c4ccccc4)ccn3)cc2)c2c(N)nccn12 [Example 133, (S)-4-(3-(1-acryloylpyrrolidin-2-yl)-8-aminoimidazo[1,5-a]pyrazin-1-yl)-N-(4-phenylpyridin-2-yl)benzamide]		<1 µM	EC50 Lyn activity values (Lyn enzyme): <1 µM

Further lines, with some results ahead:

EC50 Btk activity values (Btk enzyme (His-Btk); bin bounds in nM)	EC50 Lck activity values (Lck enzyme)	Structure (SMILES)	also measured
	<1 µM	C=CC(=O)N1CCC[C@H]1c1nc(-c2ccc(C(=O)Nc3cc(C(F)(F)F)ccn3)cc2)c2c(N)nccn12 [Example 62, (S)-4-(3-(1-acryloylpyrrolidin-2-yl)-8-aminoimidazo[1,5-a]pyrazin-1-yl)-N-(4-(trifluoromethyl)pyridin-2-yl)benzamide]	
	<1 µM	CC#CC(=O)N1CCCC[C@H]1c1nc(-c2ccc(C(=O)Nc3cc(CCC)ccn3)cc2)c2c(N)nccn12 [Example 64, (S)-4-(8-amino-3-(1-but-2-ynoylpiperidin-2-yl)imidazo[1,5-a]pyrazin-1-yl)-N-(4-propylpyridin-2-yl)benzamide]	
	<1 µM	CCCc1ccnc(NC(=O)c2ccc(-c3nc([C@H](C)N(C)C(=O)/C=C/CN(C)C)n4ccnc(N)c34)cc2)c1 [Example 76, (S,E)-4-(8-amino-3-(1-(4-(dimethylamino)-N-methylbut-2-enamido)ethyl)imidazo[1,5-a]pyrazin-1-yl)-N-(4-propylpyridin-2-yl)benzamide]	
<100 nM		COC/C=C/C(=O)N1CCC[C@H]1c1nc(-c2ccc(C(=O)Nc3ccccn3)c(OC)c2)c2c(N)nccn12 [Example 103, (S,E)-4-(8-amino-3-(1-(4-methoxybut-2-enoyl)pyrrolidin-2-yl)imidazo[1,5-a]pyrazin-1-yl)-2-methoxy-N-(pyridin-2-yl)benzamide]	
	<1 µM	Nc1nccn2c([C@@H]3CCCN3C(=O)/C=C/c3ccccc3)nc(-c3ccc(C(=O)Nc4ccccn4)cc3)c12 [Example 104, (S,E)-4-(8-amino-3-(1-cinnamoylpyrrolidin-2-yl)imidazo[1,5-a]pyrazin-1-yl)-N-(pyridin-2-yl)benzamide]	EC50 Btk activity values (Btk enzyme (His-Btk); bin bounds in μM): <1000 nM
<100 nM		CC#CC(=O)N1CCC[C@H]1c1nc(-c2ccc(C(=O)Nc3cc(F)ccn3)cc2)c2c(N)nccn12 [Example 106, (S)-4-(8-amino-3-(1-but-2-ynoylpyrrolidin-2-yl)imidazo[1,5-a]pyrazin-1-yl)-N-(4-fluoropyridin-2-yl)benzamide]	
<100 nM		CCCc1ccnc(NC(=O)c2ccc(-c3nc([C@@H]4CCCCN4C(=O)/C=C/COC)n4ccnc(N)c34)cc2F)c1 [Example 114, (S,E)-4-(8-amino-3-(1-(4-methoxybut-2-enoyl)piperidin-2-yl)imidazo[1,5-a]pyrazin-1-yl)-2-fluoro-N-(4-propylpyridin-2-yl)benzamide]	
<100 nM		Nc1nccn2c([C@@H]3CCCN3C(=O)c3ccnc(Cl)n3)nc(-c3ccc(C(=O)Nc4cc(C(F)(F)F)ccn4)cc3)c12 [Example 119, (S)-4-(8-amino-3-(1-(2-chloropyrimidine-4-carbonyl)pyrrolidin-2-yl)imidazo[1,5-a]pyrazin-1-yl)-N-(4-(trifluoromethyl)pyridin-2-yl)benzamide]	
	<1 µM	C=CC(=O)N1CCC[C@H]1c1nc(-c2ccc(C(=O)Nc3cc(C)ccn3)cc2)c2c(N)nccn12 [Example 124, (S)-4-(3-(1-acryloylpyrrolidin-2-yl)-8-aminoimidazo[1,5-a]pyrazin-1-yl)-N-(4-methylpyridin-2-yl)benzamide]	EC50 Lyn activity values (Lyn enzyme): <1 µM
	<1 µM	C=CC(=O)N1CCC[C@H]1c1nc(-c2ccc(C(=O)Nc3cc(CCC)ccn3)cc2)c2c(N)nccn12 [Example 125, (S)-4-(3-(1-acryloylpyrrolidin-2-yl)-8-aminoimidazo[1,5-a]pyrazin-1-yl)-N-(4-propylpyridin-2-yl)benzamide]	EC50 Lyn activity values (Lyn enzyme): <1 µM
	<1 µM	C=CC(=O)N1CCC[C@H]1c1nc(-c2ccc(C(=O)Nc3cc(CC)ccn3)cc2)c2c(N)nccn12 [Example 126, (S)-4-(3-(1-acryloylpyrrolidin-2-yl)-8-aminoimidazo[1,5-a]pyrazin-1-yl)-N-(4-ethylpyridin-2-yl)benzamide]	EC50 Lyn activity values (Lyn enzyme): <1 µM
